For four compounds, DC50 and IC50 results are on record in US20210228562A1, “IRAK DEGRADERS AND USES THEREOF” (Kymera Therapeutics, Inc., priority 2019, published 2021).

T2 sequence (Q13422 whole entry): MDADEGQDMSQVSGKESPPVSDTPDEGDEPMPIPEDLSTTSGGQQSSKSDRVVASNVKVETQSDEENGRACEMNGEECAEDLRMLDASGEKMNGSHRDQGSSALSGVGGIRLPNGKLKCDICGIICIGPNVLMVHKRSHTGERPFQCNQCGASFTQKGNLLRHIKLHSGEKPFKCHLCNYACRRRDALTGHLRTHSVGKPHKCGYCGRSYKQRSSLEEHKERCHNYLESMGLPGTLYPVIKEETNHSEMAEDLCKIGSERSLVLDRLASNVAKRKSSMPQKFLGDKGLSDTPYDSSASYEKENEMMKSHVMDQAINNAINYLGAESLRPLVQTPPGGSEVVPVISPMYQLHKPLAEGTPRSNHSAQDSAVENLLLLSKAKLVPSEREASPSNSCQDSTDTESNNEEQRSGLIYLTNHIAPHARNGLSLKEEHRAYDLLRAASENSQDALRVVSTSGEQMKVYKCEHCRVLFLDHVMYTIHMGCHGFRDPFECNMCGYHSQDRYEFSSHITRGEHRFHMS
T2 sequence (Q96SW2 whole entry): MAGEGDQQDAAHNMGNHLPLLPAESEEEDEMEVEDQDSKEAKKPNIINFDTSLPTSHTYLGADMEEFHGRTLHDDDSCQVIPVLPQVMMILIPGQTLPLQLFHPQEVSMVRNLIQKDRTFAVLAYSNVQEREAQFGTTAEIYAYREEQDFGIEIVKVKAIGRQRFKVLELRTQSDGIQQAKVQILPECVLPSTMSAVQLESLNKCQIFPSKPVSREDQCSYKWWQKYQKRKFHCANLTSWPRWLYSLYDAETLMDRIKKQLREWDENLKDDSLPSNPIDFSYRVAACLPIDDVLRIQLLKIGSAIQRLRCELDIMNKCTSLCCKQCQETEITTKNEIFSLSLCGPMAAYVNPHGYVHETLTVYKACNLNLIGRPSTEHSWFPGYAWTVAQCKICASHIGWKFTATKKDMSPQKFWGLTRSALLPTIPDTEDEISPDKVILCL
T2 sequence (Q16531 whole entry partner): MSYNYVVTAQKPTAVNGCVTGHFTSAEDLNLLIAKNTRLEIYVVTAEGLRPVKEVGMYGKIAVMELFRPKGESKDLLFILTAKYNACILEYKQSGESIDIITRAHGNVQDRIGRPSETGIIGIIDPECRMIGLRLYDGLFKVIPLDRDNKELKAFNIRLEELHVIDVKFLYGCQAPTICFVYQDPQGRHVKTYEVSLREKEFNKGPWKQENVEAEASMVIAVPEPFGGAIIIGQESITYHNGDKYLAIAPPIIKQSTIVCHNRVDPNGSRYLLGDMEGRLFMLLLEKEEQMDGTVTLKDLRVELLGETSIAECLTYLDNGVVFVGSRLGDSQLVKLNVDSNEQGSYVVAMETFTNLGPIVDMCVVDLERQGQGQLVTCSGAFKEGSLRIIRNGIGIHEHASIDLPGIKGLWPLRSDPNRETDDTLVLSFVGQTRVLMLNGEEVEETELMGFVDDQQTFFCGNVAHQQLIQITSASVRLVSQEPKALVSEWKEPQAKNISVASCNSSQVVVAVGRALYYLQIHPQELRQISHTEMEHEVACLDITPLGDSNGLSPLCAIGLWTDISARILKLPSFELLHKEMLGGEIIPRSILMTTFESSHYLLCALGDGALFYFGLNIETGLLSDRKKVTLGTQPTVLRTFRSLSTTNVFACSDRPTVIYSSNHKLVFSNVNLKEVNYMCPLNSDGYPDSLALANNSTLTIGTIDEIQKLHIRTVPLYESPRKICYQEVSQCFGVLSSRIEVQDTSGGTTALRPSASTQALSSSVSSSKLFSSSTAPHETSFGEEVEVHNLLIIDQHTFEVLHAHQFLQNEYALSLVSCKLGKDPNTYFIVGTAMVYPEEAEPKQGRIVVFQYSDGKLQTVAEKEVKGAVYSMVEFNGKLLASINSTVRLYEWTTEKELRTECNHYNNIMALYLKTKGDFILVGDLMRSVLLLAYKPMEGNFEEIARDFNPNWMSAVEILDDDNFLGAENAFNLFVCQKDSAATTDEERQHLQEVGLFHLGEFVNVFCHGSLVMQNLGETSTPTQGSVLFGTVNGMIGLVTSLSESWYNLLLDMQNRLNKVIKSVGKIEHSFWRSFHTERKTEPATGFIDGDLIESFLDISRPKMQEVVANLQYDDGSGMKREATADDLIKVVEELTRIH

In the first assay the target is T1, IRAK4 (Homo sapiens, UniProt Q9NWZ3).
T1 construct: endogenous in cells; host or cells: OCI-LY10
T1 sequence (Q9NWZ3 1-460): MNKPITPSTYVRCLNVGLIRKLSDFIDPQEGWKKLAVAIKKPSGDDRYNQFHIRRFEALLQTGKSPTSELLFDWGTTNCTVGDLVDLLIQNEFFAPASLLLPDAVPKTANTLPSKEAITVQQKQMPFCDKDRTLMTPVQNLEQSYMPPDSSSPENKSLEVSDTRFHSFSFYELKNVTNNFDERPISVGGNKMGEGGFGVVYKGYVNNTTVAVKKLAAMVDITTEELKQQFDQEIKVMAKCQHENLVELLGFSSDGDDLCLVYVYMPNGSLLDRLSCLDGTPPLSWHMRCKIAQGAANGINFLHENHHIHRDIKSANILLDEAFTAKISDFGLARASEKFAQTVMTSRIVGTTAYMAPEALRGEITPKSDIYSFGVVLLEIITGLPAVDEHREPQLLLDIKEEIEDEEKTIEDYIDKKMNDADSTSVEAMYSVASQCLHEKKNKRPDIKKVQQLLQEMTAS
The experiment in a line: IRAK4 MSD Degradation in OCI-LY10. It is filed as cell-based. The settings on record: OCI-LY10 cells, 24 hrs incubation; read-out: IRAK4 degradation in OCI-LY10 at 24 hrs: DC50. On the procedure: Degradation of IRAK4 in OCI-LY10 was quantitatively measured using Meso Scale Discovery technology. OCI-LY10 cells were seeded in 96-well plates (Corning 3799) with a density of 300,000 cells per well in 100 μL fresh media. Compounds were then added to the assay plates with a final top concentration of 1 to 10 μM in a 1:3 dilution series with total of 8 doses. The assay plates were then incubated for 4 to 24 hours at 37° C. under 5% CO2. The assay plates were then centrifuged for 5 minutes and the cell pellets were treated with 100 μL/well RIPA lysis buffer (Boston BioProducts BP-115D) with proteinase inhibitors. To prepare MSD assay plates (Meso Scale Discovery Catalog number L15XA-3), the plates were coated with 2 μg/mL capture antibody (mouse Anti-IRAK4 antibody [2H9], ab119942) in PBS, at 40 μL/well. The plates were then incubated overnight at 4° C., washed 3 times with 150 μL/well TBST buffer (Cell Signaling Technology, Catalog number 9997S) and blocked with 150 μL/well blocking buffer (Meso Scale Discovery Catalog number R93BA-4). Cell lysates were then added to MSD assay plates and the plates were incubated at room temperature for 1 hour. The plates were then washed 3 times with 150 μL/well TBST buffer and 25 μL/well primary detection antibody (rabbit Anti-IRAK4 antibody [Y279], from Abcam. Catalog number ab32511, 1 μg/mL). The assay plates were then incubated at room temperature for 1 hour, washed 3 times with 150 μL/well TBST buffer and 25 μL/well secondary detection antibody, SULFO-TAG anti-rabbit antibody were added (anti rabbit antibody from Meso Scale Discovery, Catalog number R32AB-1, 1 μg/mL). The assay plates were then incubated at room temperature for 1 hour, washed 3 times with 150 μL/well TBST buffer, and 150 μL/well MSD reading buffer (Meso Scale Discovery catalog number R92TC-2) was added. The plates were then analyzed by a MSD reader (Meso Scale Discovery, Model Quick Plex SQ 120). The data was then analyzed by software Prism 7.0 from GraphPad and the dose-depended IRAK4 degradation were fit using a three-parameter logistic equation to calculate DC50.
In general, DC50 refers to the concentration at which degradation of the target reaches its halfway point. Turning to `Cc1cc(F)cc(C(=O)Nc2cc3sc([C@H]4CC[C@H](CN5CC6(CC(CCNc7cccc8c7C(=O)N(C7CCC(=O)NC7=O)C8=O)C6)C5)CC4)nc3cc2C(C)(C)O)n1` (stereo partly shown) [I-33], the DC50 was below 50 nM.

For the compound `COc1cc2nc([C@H]3CC[C@H](CN4CCC5(CC4)CC(Nc4cccc6c4C(=O)N(C4CCC(=O)NC4=O)C6=O)C5)CC3)sc2cc1NC(=O)c1cnn2cccnc12` (stereo partly shown) [I-34], the DC50 is below 50 nM.

With `CC(C)(O)c1cc2nc(N3CCC(CN4CCC5(CC4)CC(CNc4cccc6c4C(=O)N(C4CCC(=O)NC4=O)C6=O)C5)CC3)sc2cc1NC(=O)c1cccc(C(F)(F)F)n1` (stereo not shown) [I-35], the DC50 fell in the range of 50 to 100 nM.

Regarding `CC(C)(O)c1cc2nc([C@H]3CC[C@H](CN4CC5(CC(CCNc6cccc7c6C(=O)N(C6CCC(=O)NC6=O)C7=O)C5)C4)CC3)sc2cc1-n1ccc2ccccc2c1=O` (stereo partly shown) [I-40], the DC50 fell in the range of 100 to 500 nM.

A further assay has as its target T2, Ikaros (protein product of gene IKZF1) (Homo sapiens, UniProt Q13422+Q96SW2).
T2 construct: endogenous in cells; host or cells: OCI-LY10
The experiment in a line: Quantification of Ikaros degradation in OCI-LY10 cells (quantitative immunoblotting). Format: cell-based. The settings on record: 6 h treatment. As to the method:
(§1) Degradation of Ikaros (protein product of gene IKZF1) and Aiolos (protein product of gene IKZF3) were determined by quantitative immunoblotting as follows. OCI-LY10 cells, 2×10^6 cells/well, were treated with listed concentrations of IRAK4 degraders or control compounds in 6 well plates for 6 h. Cells were collected, washed with cold PBS, lysed in RIPA buffer (Boston BioProducts BP-115D) with protease/phosphatase inhibitor cocktail (Roche 05892791001/Roche 04906837001) and centrifuged at 13000 RPM for 20 min to precipitate insoluble material. The supernatant fraction was diluted in SDS-PAGE loading buffer (Beyotime Bio P0015) and 20 μL of each sample was resolved on 4-12% Bis-Tris SDS-PAGE gels (Novex, WG1402BOX). Resolved samples were transferred to nitrocellulose membranes by wet electro-transfer method at 250 mV for 1.5 h. The membrane was blocked with LICOR blocking buffer (LI-COR, 927-50000) for 1 hour, washed three times with TBST (CST #99975) for 5 minutes each and incubated with primary antibody prepared in block buffer with 0.1% Tween-20 (Solarbio, P8220) at 4° C. overnight. Ikaros antibody was rabbit monoclonal D6N9Y (CST #14859), at 1:1000 dilution. Aiolos antibody was rabbit monoclonal D1C1E (CST #15103), at 1:1000 dilution. Signal was normalized to mouse anti-beta-Actin monoclonal 8H10D10 (CST #3700) used at 1:10,000 dilution. After incubation in primary antibodies, membranes were washed three times with TBST, 5 minutes each, incubated with fluorescently labeled secondary antibodies anti-rabbit IgG (Licor, 926-32211) at 1:5000 dilution; anti-mouse IgG (LI-COR, 926-68070) at 1:5000 dilution, for 1 hour at RT. After incubation in secondary, membranes were washed three times with TBST, 5 minutes each and read on LICOR Odyssey imager. Data was reported as signal for Ikaros or Aiolos relative to signal for actin, and normalized to DMSO-treated control.
Background: Immunoblotting shows a protein as a band on a membrane.
The compound `Cc1cc(F)cc(C(=O)Nc2cc3sc([C@H]4CC[C@H](CN5CC6(CC(CCNc7cccc8c7C(=O)N(C7CCC(=O)NC7=O)C8=O)C6)C5)CC4)nc3cc2C(C)(C)O)n1` (stereo partly shown) [I-33] gave a DC50 below 50 nM.

For the compound `COc1cc2nc([C@H]3CC[C@H](CN4CCC5(CC4)CC(Nc4cccc6c4C(=O)N(C4CCC(=O)NC4=O)C6=O)C5)CC3)sc2cc1NC(=O)c1cnn2cccnc12` (stereo partly shown) [I-34], the DC50 was below 50 nM.

Consider `CC(C)(O)c1cc2nc(N3CCC(CN4CCC5(CC4)CC(CNc4cccc6c4C(=O)N(C4CCC(=O)NC4=O)C6=O)C5)CC3)sc2cc1NC(=O)c1cccc(C(F)(F)F)n1` (stereo not shown) [I-35], for which the DC50 was below 50 nM.

`CC(C)(O)c1cc2nc([C@H]3CC[C@H](CN4CC5(CC(CCNc6cccc7c6C(=O)N(C6CCC(=O)NC6=O)C7=O)C5)C4)CC3)sc2cc1-n1ccc2ccccc2c1=O` (stereo partly shown) [I-40] showed a DC50 below 50 nM.

In another assay the target is T3, Aiolos (protein product of gene IKZF3) (Homo sapiens, UniProt Q96SW2+Q9UKT9).
T3 construct: endogenous in cells; host or cells: OCI-LY10
T3 sequence (Q9UKT9 whole entry): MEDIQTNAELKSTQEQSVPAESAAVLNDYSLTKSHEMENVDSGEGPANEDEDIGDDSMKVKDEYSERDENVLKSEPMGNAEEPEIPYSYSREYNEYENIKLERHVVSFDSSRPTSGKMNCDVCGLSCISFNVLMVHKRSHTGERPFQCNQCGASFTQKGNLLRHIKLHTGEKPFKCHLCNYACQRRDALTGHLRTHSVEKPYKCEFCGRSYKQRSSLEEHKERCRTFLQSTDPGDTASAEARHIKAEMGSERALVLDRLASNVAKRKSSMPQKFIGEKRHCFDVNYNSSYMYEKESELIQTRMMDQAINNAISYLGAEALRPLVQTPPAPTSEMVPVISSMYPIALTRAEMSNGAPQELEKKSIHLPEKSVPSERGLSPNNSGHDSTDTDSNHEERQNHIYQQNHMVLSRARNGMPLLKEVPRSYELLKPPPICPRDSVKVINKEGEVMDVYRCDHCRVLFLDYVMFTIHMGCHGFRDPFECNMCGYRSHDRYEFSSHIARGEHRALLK
T3 sequence (Q96SW2 whole entry): as the sequence (Q96SW2 whole entry) above
T3 sequence (Q16531 whole entry partner): as the sequence (Q16531 whole entry partner) above
The assay can be described thus: Quantification of Aiolos degradation in OCI-LY10 cells (quantitative immunoblotting). Format: cell-based. Conditions: 6 h treatment. On the procedure: as §1
Regarding `Cc1cc(F)cc(C(=O)Nc2cc3sc([C@H]4CC[C@H](CN5CC6(CC(CCNc7cccc8c7C(=O)N(C7CCC(=O)NC7=O)C8=O)C6)C5)CC4)nc3cc2C(C)(C)O)n1` (stereo partly shown) [I-33], the DC50 is below 50 nM.

The compound `COc1cc2nc([C@H]3CC[C@H](CN4CCC5(CC4)CC(Nc4cccc6c4C(=O)N(C4CCC(=O)NC4=O)C6=O)C5)CC3)sc2cc1NC(=O)c1cnn2cccnc12` (stereo partly shown) [I-34] returned a DC50 below 50 nM.

In the case of `CC(C)(O)c1cc2nc(N3CCC(CN4CCC5(CC4)CC(CNc4cccc6c4C(=O)N(C4CCC(=O)NC4=O)C6=O)C5)CC3)sc2cc1NC(=O)c1cccc(C(F)(F)F)n1` (stereo not shown) [I-35], the DC50 was below 50 nM.

As to `CC(C)(O)c1cc2nc([C@H]3CC[C@H](CN4CC5(CC(CCNc6cccc7c6C(=O)N(C6CCC(=O)NC6=O)C7=O)C5)C4)CC3)sc2cc1-n1ccc2ccccc2c1=O` (stereo partly shown) [I-40], the DC50 is below 50 nM.

The next assay relates to OCI-LY10 cells. The assay can be described thus: CTG Cell Viability Assay - OCI-LY10. The settings on record: Homo sapiens, 96 h, CellTiter-Glo, 4 days incubation. It is filed as cell-based. On the procedure: Compound-mediated viability effect on OCI-LY10 or SUDHL-2 was quantitatively determined using the CellTiter-Glo® Luminescent Cell Viability Assay kit from Promega (Catalog number G7570) following manufacturer's recommended procedures. Briefly, OCI-LY10 or SUDHL-2 cells were seeded into 384 well plates (Grenier Bio-One, Catalog number 781080) with a density of 10,000 cells per well. Compounds were then added to the assay plate with final top concentration of 10 μM and 1:3 dilution series with total of 9 doses. The final DMSO concentration was normalized to 0.2%. The assay plates were incubated at 37° C. for 4 days under 5% CO2. Then the assay plate was equilibrated at room temperature for 10 minutes. To determine cell viability, 30 μL CellTiter Glo reagent was added to each well and the assay plate was centrifuged at 1000 rpm for 30 second, incubated at room temperature for 10 min, and analyzed by detecting the luminescence using a multimode plate reader (EnVision 2105, PerkinElmer). The data was then analyzed by software Prism 7.0 from GraphPad and the dose response curves were fit using a three-parameter logistic equation to calculate IC50.
(In ATP-based viability assays light output follows the ATP content of the culture.)
Broadly, the IC50 is the concentration that inhibits the measured activity by half. Higher therefore signals weaker potency in that assay. For `Cc1cc(F)cc(C(=O)Nc2cc3sc([C@H]4CC[C@H](CN5CC6(CC(CCNc7cccc8c7C(=O)N(C7CCC(=O)NC7=O)C8=O)C6)C5)CC4)nc3cc2C(C)(C)O)n1` (stereo partly shown) [I-33], the IC50 was below 50 nM.

As for `COc1cc2nc([C@H]3CC[C@H](CN4CCC5(CC4)CC(Nc4cccc6c4C(=O)N(C4CCC(=O)NC4=O)C6=O)C5)CC3)sc2cc1NC(=O)c1cnn2cccnc12` (stereo partly shown) [I-34], the IC50 was 50 to 100 nM.

Consider `CC(C)(O)c1cc2nc(N3CCC(CN4CCC5(CC4)CC(CNc4cccc6c4C(=O)N(C4CCC(=O)NC4=O)C6=O)C5)CC3)sc2cc1NC(=O)c1cccc(C(F)(F)F)n1` (stereo not shown) [I-35], for which the concentration for half-maximal inhibition (IC50) was 500 to 1000 nM.

With `CC(C)(O)c1cc2nc([C@H]3CC[C@H](CN4CC5(CC(CCNc6cccc7c6C(=O)N(C6CCC(=O)NC6=O)C7=O)C5)C4)CC3)sc2cc1-n1ccc2ccccc2c1=O` (stereo partly shown) [I-40], the IC50 is below 50 nM.
